Laboratory results reported in patent US20250136669A1, “VHH ANTIBODY” (TEIKYO HEISEI UNIVERSITY, priority 2021, published 2025).

How the values were obtained:
Pseudomonas aeruginosa = conditions: fraction of MIC, Non Patent Literatures 4 and 5; cited from earlier work
[1] = system: multidrug-resistant Pseudomonas aeruginosa NCGM2.S1; assay: Silkworm Pseudomonas aeruginosa infection model; assay type: in vivo; conditions: colistin alone administration group, probit analysis
Method: A: Overnight culture solution of NCGM2.S1 was diluted by 100 times and cultured for 16 hours and was then injected into hemolymph of silkworms on the 2nd day of the 5th instar, and 0.05 mL of colistin was then injected into the blood. The survival rates were measured over 96 hours. […] The survival rates were measured over 96 hours. […] The survival rates were measured over 96 hours.
Overnight culture solution of multidrug-resistant Pseudomonas aeruginosa NCGM2.S1 was diluted 100 times and was further cultured overnight. The bacterial culture solution was diluted with physiological saline (Otsuka Pharmaceutical Co., Ltd.), and 0.05 mL thereof was injected into hemolymph from the dorsal surface using a 1-mL injection syringe (Terumo Corporation) and 27-gauge syringe needle (Terumo Corporation), and the silkworm larvae were fed at 27° C. The median lethal dose was measured from the survival rate after 24 hours, and 0.05 mL of the bacteria in an amount 4 times the median lethal dose was injected to make a silkworm Pseudomonas aeruginosa infection model.

[2] = system: Staphylococcus aureus ATCC25923; assay: Colistin MIC with antibody, Staphylococcus aureus; assay type: cell-based; conditions: same in absence and presence of 10 μg/mL 4P41 LZ trimer
Method: The minimum growth inhibitory concentration (MIC) of an antimicrobial agent was measured by a microbroth dilution method in accordance with the Clinical Laboratory Standards Institute (CLSI) guideline. The serially diluted antimicrobial agent was added to a 96-well round bottom microtiter plate (Watson Co., Ltd.) at 100 μL/well, and each bacterial strain was inoculated at 5×10^5 CFU/mL/well. As the antimicrobial agent, Aztreonam (Sigma-Aldrich), Amikacin (Sigma-Aldrich), Arbekacin (Meiji Seika Pharma Co., Ltd.), Ofloxacin (Sigma-Aldrich), colistin (Sigma-Aldrich), and Polymyxin B (Sigma-Aldrich) were used. Synergistic effect of an antibody and an antimicrobial agent was evaluated using a checkerboard dilution method. Each of the antimicrobial agents was serially two-fold diluted in the vertical direction in a 96-well round bottom titer plate to concentrations between 0.125 to 2 times the MIC. Subsequently, an antibody was serially two-fold diluted in the horizontal direction of the plate in a range of 0 to 10 μg/mL or 0 to 20 μg/mL. Each bacterial strain was inoculated at 5×10^5 CFU/mL/well.
A multidrug-resistant Pseudomonas aeruginosa NCGM2.S1 and drug-susceptible Pseudomonas aeruginosa PAO1 and OCR1 were cultured using Luria Bertani (LB) medium (BD) or an LB plate containing 15 g/L of agar at 37° C. […]

[3] = system: multidrug-resistant Pseudomonas aeruginosa strain NCGM2.S1; assay: Drug susceptibility test (MIC, microbroth dilution, CLSI) with antibody added; assay type: cell-based; conditions: NCGM2.S1, antibody 10 μg/mL, FIG. 14B
Method: B: MIC of colistin in the presence of an antibody. The MIC of colistin in the presence of each antibody in NCGM2.S1 was measured by a microbroth dilution method in accordance with the CLSI guideline. […] As the negative control, a 4P6 trimer which is a human TRAIL-R1 VHH trimer was used.
The minimum growth inhibitory concentration (MIC) of an antimicrobial agent was measured by a microbroth dilution method in accordance with the Clinical Laboratory Standards Institute (CLSI) guideline. The serially diluted antimicrobial agent was added to a 96-well round bottom microtiter plate (Watson Co., Ltd.) at 100 μL/well, and each bacterial strain was inoculated at 5×10^5 CFU/mL/well. As the antimicrobial agent, Aztreonam (Sigma-Aldrich), Amikacin (Sigma-Aldrich), Arbekacin (Meiji Seika Pharma Co., Ltd.), Ofloxacin (Sigma-Aldrich), colistin (Sigma-Aldrich), and Polymyxin B (Sigma-Aldrich) were used. Synergistic effect of an antibody and an antimicrobial agent was evaluated using a checkerboard dilution method. Each of the antimicrobial agents was serially two-fold diluted in the vertical direction in a 96-well round bottom titer plate to concentrations between 0.125 to 2 times the MIC. Subsequently, an antibody was serially two-fold diluted in the horizontal direction of the plate in a range of 0 to 10 μg/mL or 0 to 20 μg/mL. Each bacterial strain was inoculated at 5×10^5 CFU/mL/well. […]

[4] = system: ovalbumin-loop 1 peptide (loop 1 of OprM); assay: ELISA binding of VHH monomer to loop 1 antigen; design: species or system Pseudomonas aeruginosa; conditions: purified monomer protein
Method: In the anti-loop 1 VHH antibody, 0.1 M NaHCO3 (Blank), 0.1 M NaHCO3 containing […] of thyroglobulin, 0.1 M NaHCO3 containing 10 μg/mL of thyroglobulin-loop 1 peptide, or 0.1 M NaHCO3 containing 10 μg/mL of ovalbumin-loop 1 peptide was added to a 96-well immuno plate (Nunc) at 40 μL/well and was left to stand at 4° C. overnight.
In the anti-loop 2 VHH antibody, 0.1 M NaHCO3 (Blank), 0.1 M NaHCO3 containing […] of KLH-loop 2 peptide was added to a 96-well immuno plate (Nunc) at 40 μL/well and was left to stand at 4° C. overnight. SuperBlock-PBS (Thermo Fisher Scientific) was added to the plate at 350 μL/well and left to stand at room temperature for 1 hour. After washing with 400 μL/well of PBS-T (phosphate buffer saline containing 0.05% Tween 20), 40 µL/well of SuperBlock-TBS containing 0.2 μg/mL of the VHH antibody was added thereto, followed by reaction at room temperature for 1 hour. The wells were washed with 400 μL/well of PBS-T again three times, and 40 μL/well of anti-Myc mouse monoclonal antibody 9E10 (Santa Cruz Biotechnology Inc.) diluted 500 times with SuperBlock-TBS was added thereto, followed by reaction at room temperature for 1 hour. […] Subsequently, absorbance at 450 nm was measured, and the average and standard deviation were calculated of triplicate or quadruplicate measurement.

In the case of `c1ccc2c(CN3CCNCC3)cccc2c1` [NMP, 1-(1-naphthylmethyl)-piperazine], the “decrease of the MIC value of an antimicrobial agent in Pseudomonas aeruginosa” value (Pseudomonas aeruginosa) is given as “⅛”.

In the case of `c1ccc2c(c1)Nc1ccccc1S2` [phenothiazine], the “decrease of the MIC value of an antimicrobial agent in Pseudomonas aeruginosa” value (Pseudomonas aeruginosa) is listed as “⅛”.

For colistin, the “therapeutically effective dose ED50 of colistin” value [1] was 124 μg/g body weight and the “MIC of colistin in Staphylococcus aureus” value [2] was > 128 µg/mL.

B1: 4P94 monomer: anti-loop 1 VHH antibody from alpaca, monomer with cMyc-Tag and His-Tag (protein)
VHH: EVQLVESGGGLVQAGNSLKLSCVVSGRTLRNYAMGWFRQAPLKEREFVAAIGWTTGTASYGTPTYSDSVKGRFTISRDNAGNTLYLLMNNLKPEDTAVYYCAAGLIGYFGDRISSASVYDGWGQGTQVTVSS
modifications: left off: small tags and cut ends
notes: anti-loop 1 VHH antibody from alpaca, monomer with cMyc-Tag and His-Tag
For B1, the “change in MIC of colistin, antibody added at 10 μg/mL” value [3] was “¼” and the “binding to ovalbumin-loop 1 peptide” value [4] was “specifically bound”.
